Consider 4 compounds from patent US10100077B2, “6-aryl-9-glycosylpurines and use thereof” (UNIVERZITA PALACKEHO V OLOMOUCI, priority 2014, dated 2018).

The structures appear in SMILES notation. pIC50: −log10 of the molar value.

The term pIC50 denotes −log10 of the IC50, conventionally taken in molar units. A low value points to a large IC50. Broadly, the GI50 is the concentration that inhibits growth by half.

Data set [1] has as its system skin fibroblasts BJ and keratinocytes HaCaT. Kind of data set: MTT in vitro cytotoxicity test for skin cells. Type of data set: cell-based. The settings on record: Homo sapiens; MTT, 72 hour treatment, BJ and HaCaT, maximal concentration 50 microM. How it is done: MTT assay is a standard test of toxicity based on photometric measurement of the ability of metabolically active cells to reduce MTT (3-(4,5-dimethylthiazol-2-yl)-2,5-diphenyltetrazolium bromide). Using the assay, the effects of 72 hour treatments with several concentrations of the compounds (sixfold dilution, maximal concentration=50 microM) on viability of skin fibroblasts BJ and keratinocytes HaCaT were evaluated. About 5,000 cells were seeded per well of a 96-well plate 24 hours before the treatment. DMSO vehiculum was used as a negative control. After 72 hour treatment, new medium with MTT (Sigma, M2128) was added to a final concentration of 0.5 mg/ml. After 3 hours, medium was removed and resulting formazan in the cells was dissolved in DMSO. The absorbance was measured at 570 nm (640 nm reference wavelength). The IC50 values were calculated from the dose-response curves. 6-Benzylaminopurine riboside and 6-furfurylaminopurine riboside were used as positive controls they were toxic in the MTT test.

A short description of data set [2]: Calcein AM cytotoxicity assay, NIH3T3. The format is cell-based, mouse. The conditions noted are these: mouse, NIH3T3 fibroblasts. The text has this:
(§1) One of the parameters used as the base for cytotoxic analysis is metabolic activity of viable cells, such as microtiter assay, which uses the Calcein AM, is now widely used to quantitate cell proliferation and cytotoxicity. The quantity of reduced Calcein AM corresponds to the number of viable cells in culture. The cell lines of breast cancer (MCF-7), mousse fibroblasts (NIH3T3), human erythromleukemia (K562) were used for routine screening of cytotoxicity of the compounds. The cells were maintened in Nunc/Corning 80 cm^2 plastic bottles and grown in media for cell culture (DMEM containing 5 g/l of glucose, 2 mM of glutamin, 100 U/ml of penicilin, […] of streptomycin, 10% of fetal bovine serum and sodium hydrogencarbonate). Cell suspensions were diluted according to cell types and according to expected final cell density (10^4 of cells per well according to characteristics of cell growth), pipetted 80 μl of cell suspension on 96-well microtiter plates. Innoculates were stabilized by 24 hrs preincubation at 37° C. in CO2. Particular concentrations of tested compounds were added in time zero as 20 μl aliquotto wells of microtiter plates. Usually, the compounds were diluted into six concentrations in four-fold dilution series. In routine testing, the highest well concentration was 166.7 μM, of change dependent on the substance. All drug concentrations were examined in duplicates. The incubation of cells with tested derivatives lasted 72 hrs at 37° C., 100% humidity and in the atmosphere of CO2. At the end of the incubation period, the cells were tested and analysed according to the addition of Calcein AM (Molecular probes) solution and the incubation lasted for next 1 hour. Fluorescence (FD) was measured using Labsystem FIA reader Fluorskan Ascent (Microsystems). The survival of tumor cells (The tumor cell survival-TCS) was counted according to equation: […]=(FDwell with derivative/FDcontrol well)×100%. The value of GI50, that is equal to the concentration of compound at which 50% of tumour cells are terminated. To evaluate the antitumor activity was tested toxicity of new derivatives on panel of cell lines of different histogenetic and species origin (Tab. 7, G150 concentration given in μM). […] Effective derivatives killed tumor cells in concentrations close to 0.1 to 50. None of the newly prepared compounds only reached the value.

For data set [3], the system named is Vaccinia virus and Herpes simplex virus. The settings on record: cited from earlier work.
For data set [4], the system named is skin fibroblasts BJ and keratinocytes HaCaT. Kind of data set: SRB in vitro toxicity test. The settings on record: Homo sapiens, 72 hour treatment, maximal concentration 50 microM. Type of data set: cell-based. As to the method: SRB (sulforhodamine B) assay is a standard toxicity test based on a photometric measurement of the cellular protein content after the staining with sulphorhodamine B. Using the assay, the effects of 72 hour treatments with several concentrations of the compounds (sixfold dilution, maximal concentration=50 microM) on viability of skin fibroblasts BJ and keratinocytes HaCaT were evaluated. About 5,000 cells were seeded per well of a 96-well plate 24 hours before the treatment. DMSO vehiculum was used as a negative non-toxic control. 6-benzylaminopurine riboside a 6-furfurylaminopurin riboside were used as positive toxic controls. After three days the medium was removed and the cells fixed with 10% (wt/vol) trichloroacetic acid. After the extensive washing in distilled water, 0.4% (wt/vol) solution of SRB in acetic acid was added and the fixed cells were stained for 30 minutes. The unbound stain was washed away by distilled water and the bound SRB was solubilized in unbuffered 10 mM Tris base. Absorbance was measured at 564 nm. IC50 values were calculated from dose-response curves.

The subject of a further data set is BJ skin fibroblasts. The data set can be described thus: One-step growth curve. The format is cell-based. The settings on record: 12.5 to 100 μM, counted on 7th and 14th day. As to the method: The experiments were performed with BJ skin fibroblasts in 24-well tissue culture plates. About 10,000 cells in culture medium comprising DMEM with 10% FBS were seeded into the individual wells. The cells were allowed to attach for 24 hourse. The test compound was added to final concentrations in a range from 12.5 to 100 μM. DMSO vehiculum was also tested. In order to control for variability, two plate columns (A, D) were treated with DMSO vehiculum. The culture medium with the test chemicals or DMSO vehiculum was changed twice a week. Following trypsinization, the numbers of cells in 4 wells for each concentration were counted using Coulter counter on 7th and 14th day.

Data set [5] can be described thus: Calcein AM cytotoxicity assay, MCF-7. The settings on record: human, MCF-7 breast cancer cells. The format is cell-based.
Excerpt: as §1

Data set [6] can be described thus: Calcein AM cytotoxicity assay, K562. The format is cell-based, human. The settings on record: human, K562 erythroleukemia cells.
Excerpt: as §1

The subject of data set [7] is detached leaf segments of Triticum aestivum cv. Hereward. The data set can be described thus: Senescence bioassay on wheat leaf segments (chlorophyll retention). The conditions noted are these: chlorophyll retention at maximum effective concentration, 96 h dark. As to the method:
Seeds of winter wheat, Triticum aestivum cv. Hereward, were washed under running water for 24 hours and then sown on vermiculite soaked with Knop's solution. They were placed in the growth chamber at 25° C. with a 16/8 h light period at 50 μmol·m^−2·s^−1. After 7 days, the first leaf was fully developed and the second leaf had started to grow. A tip section of the first leaf, approximately 35 mm long, was removed from 5 seedlings and trimmed slightly to a combined weight of 100 mg. The basal ends of the five leaf tips were placed in the wells of a microtiter polystyrene plate containing 150 μL, of the tested derivative solution each. The entire plate was inserted into a plastic box lined with paper tissues soaked in distilled water to prevent leaf sections from drying out. After 96 h incubation in the dark at 25° C., the leaves were removed and chlorophyll extracted by heating at 80° C. for 10 min in 5 mL of 80% ethanol (v/v). The sample volume was then restored to 5 mL by the addition of 80% ethanol (v/v). The absorbance of the extract was recorded at 665 nm. In addition, chlorophyll extracts from fresh leaves and leaf tips incubated in deionised water were measured. The results are means of five replicates and the entire test was repeated twice. […] The compounds to be tested were dissolved in dimethylsulfoxide (DMSO) and the solution brought up to 10^−3M with distilled water. This stock solution was further diluted with the respective media used for the biotest to a concentration ranging from 10^−8M to 10^−4M. […] The activity obtained for 10^−4 M of BAP was postulated as 100%.

In data set [8] the test system is EpiDERM 3D model of epidermis. Kind of data set: In vitro test of skin irritation in EpiDERM. The format is cell-based. As to the method:
EpiDERM™ is a 3D model of epidermis manufactured by Mattek company. The effects of tested substances are evaluated by MTT. 2 solutions (2 application forms) of the compounds 6-furfurylamino-9-β-D-arabinofuranosylpurine and 6-(3-methoxybenzylamino)-9-β-D-arabinofuranosylpurine in concentrations 1 mM a 200 microM in 0.5% DMSO/99.5% PBS were evaluated according to a standard protocol “INVITRO EpiDerm™ SKIN IRRITATION TEST”. After a preincubation of the tissues, 30 microliters of the application form solution were applied on the individual tissues. The exposition time was 60 minutes. Three tissues were used for each tested concentration as well as for controls. Following washing out of the applied solution, the tissues were incubated for 42 hour in order to allow a reparation of possible damage. In the next step, the tissue was incubated with MTT for 3 hours. The resulting formazan was extracted to isopropanol. Relative viability of the individual tissues was calculated as a percentage of viability of the average of the negative controls. Average viability of the tissues treated with 1 mM solution of the test substance was 99.3% for the compound 6-(3-methoxybenzylamino)-9-β-D-arabinofuranosylpurine and 98.0% for the compound 6-(furfurylamino)-9-β-D-arabinofuranosylpurine where 100% is an average viability of the tissues treated with the solvent only. None of the tested compounds in any of the concentrations caused any tissue damage or irritation. The compounds were evaluated as non-irritant in the tested concentrations.

For data set [9], the system named is Vaccinia virus, strain IHD. The settings on record: cited from earlier work.

As to `OC[C@H]1O[C@@H](n2cnc3c(NCc4ccccc4)ncnc32)[C@@H](O)[C@@H]1O` [6-benzylamino-9-β-D-arabinofuranosylpurine], the pIC50 in data set [1] and in data set [4] was less than 4.30 each time. The GI50 at 72 h in data set [2], in data set [5] and in [6] was more than 100 µM in each case. Also, the “activity in killing Vaccinia virus and Herpes simplex virus” value in [3] is “No effect”. Also, the “influence on cell viability (cell numbers, growth curve)” value in the data set with BJ skin fibroblasts is reported as “did not have a negative influence on cell viability”.
Turning to `OC[C@H]1O[C@@H](n2cnc3c(NCc4ccco4)ncnc32)[C@@H](O)[C@@H]1O` [6-furfurylamino-9-β-D-arabinofuranosylpurine], the pIC50 in [1] and in [4] was less than 4.30 in each case. In addition, the GI50 at 72 h in data set [2], in [5] and in data set [6] was more than 100 µM throughout. The “activity (%) [10^−4 mol · l^−1 BAP = 100%]” value in [7] was determined as 193 ± 1%. For the same compound, the skin irritation evaluation result in [8] (1 mM and 200 microM in 0.5% DMSO/99.5% PBS) is given as “non-irritant”. Moreover, the “Average viability of the tissues” value in data set [8] (1 mM solution, 60 minutes exposition, 100% = solvent only) is on record as 98.0%.
As to `Cc1ccc(CNc2ncnc3c2ncn3C2OC(CO)C(O)C2O)c(C)c1` (centres unmarked) [2,4-dimethylbenzyl], the “activity against Vaccinia virus, strain IHD” value in [9] was “low activity”.
Turning to `Cc1ccc(C)c(CNc2ncnc3c2ncn3C2OC(CO)C(O)C2O)c1` (centres unmarked) [2,5-dimethylbenzyl], in [9], the “activity against Vaccinia virus, strain IHD” value was “low activity”.
